From patent EP0202903A2, “Control of ectoparasites” (priority 1985, dated 1986)

Tested on: guinea pigs
Test: Guinea pig systemic test: death of the treated guinea pig before blood sampling
Assay type: in vivo
Experimental: Adult guinea pigs were used in this test system. The compounds to be tested were dissolved in aqueous polyvinyl pyrrolidone or in polyethylene glycol 200, and an appropriate amount of the solution was administered by intraperitoneal injection. Various doses of the compound were used, as named in the tables below.
Blood was drawn from the guinea pigs at different times, shown in the tables below, and the samples of blood were centrifuged. Dental wicks were saturated with the blood serum, and were then exposed in Petri dishes to adult stable flies or adult house flies; blow fly larvae were exposed in test tubes. Various species were used in various tests. After 24 hours, the insects were examined, and the number of dead were counted.

[1] = 10 mg./kg. intraperitoneal, sampling at 6 hours
[2] = 10 mg./kg. intraperitoneal, sampling at 24 hours
[3] = 25 mg./kg. intraperitoneal, sampling at 6 hours
[4] = 100 mg./kg. intraperitoneal, sampling at 24 hours
[5] = 25 mg./kg. intraperitoneal, sampling at 2 hours
[6] = 25 mg./kg. intraperitoneal, sampling at 48 hours

Measured: Dead (guinea pig died before its blood was sampled)

O=C(CC(=O)C(F)(F)C(F)(F)C(F)(F)F)c1ccc(Cl)s1 [Example 1, 1-(5-Chlorothien-2-yl)-3-perfluoropropyl-1,3-propanedione]
Dead: 5 mg./kg. intraperitoneal, sampling at 24 hours | [1] | [2] | 10 mg./kg. intraperitoneal, sampling at 48 hours | 25 mg./kg. intraperitoneal, sampling at 4 hours | [3] | 30 mg./kg. intraperitoneal, sampling at 6 hours | 40 mg./kg. intraperitoneal, sampling at 6 hours | 50 mg./kg. intraperitoneal, sampling at 4 hours | 50 mg./kg. intraperitoneal, sampling at 6 hours | 50 mg./kg. intraperitoneal, sampling at 24 hours | [4]

O=C(CC(=O)C(F)(F)C(F)(F)C(F)(F)F)c1cc(Cl)sc1Cl [Example 3, 1-(2,5-Dichlorothien-3-yl)-3-perfluoropropyl-1,3-propanedione]
Dead: [2] | [3] | 25 mg./kg. intraperitoneal, sampling at 24 hours

O=C(CC(=O)C(F)(F)C(F)(F)C(F)(F)F)c1ccc([N+](=O)[O-])cc1.[Na] [Example 4, 1-(4-Nitrophenyl)-3-perfluoropropyl-1,3-propanedione, sodium salt]
Dead: [4]

O=C(CC(=O)C1(F)C(F)(F)C(F)(F)C(F)(F)C(F)(F)C1(F)F)c1ccc(Cl)s1 [Example 5, 1-(5-Chlorothien-2-yl)-3-perfluorocyclo-hexyl-1,3-propanedione]
Dead: 25 mg./kg. intraperitoneal, sampling at 5 hours

O=C(CC(=O)C(F)(F)C(F)(F)C(F)(F)F)c1cc(Cl)c(Cl)s1 [Example 7, l-(4,5-Dichlorothien-2-yl)-3-perfluoropropyl-1,3-propanedione]
Dead: [2]

O=C(CC(=O)C(F)(F)C(F)(F)C(F)(F)F)c1ccc(Cl)cc1 [Example 8, 1-(4-Chlorophenyl)-3-perfluoropropyl-1,3-propanedione]
Dead: 10 mg./kg. intraperitoneal, sampling at 5 hours | [5] | [6] | 50 mg./kg. intraperitoneal, sampling at 2 hours | 100 mg./kg. intraperitoneal, sampling at 2 hours

O=C(CC(=O)C(F)(F)C(F)(F)C(F)(F)F)c1cccc(C(F)(F)F)c1.[Na] [Example 12, 1-Perfluoropropyl-3-(3-trifluoromethylphenyl)-1,3-propanedione, sodium salt]
Dead: [3] | [6]

O=C(CC(=O)C(F)(F)C(F)(F)C(F)(F)F)c1ccc(C(F)(F)F)cc1.[Na] [Example 13, 1-Perfluoropropyl-3-(4-trifluoromethylphenyl)-1,3-propanedione, sodium salt]
Dead: [5]

O=C(CC(=O)C(F)(F)C(F)(F)C(F)(F)F)c1ccc(C(F)(F)F)cc1 [Example 14, 1-Perfluoropropyl-3-(4-trifluoromethylphenyl)-1,3-propanedione]
Dead: 5 mg./kg. intraperitoneal, sampling at 5 hours | 5 mg./kg. intraperitoneal, sampling at 48 hours | [1] | [3]
